Measurements as given in patent publication US5641746A, “Animal model for AIDS” (Rutgers State University of New Jersey, priority 1994, dated 1997).

Key:
[1] = tested on: intracellular free calcium; settings: cited from earlier work
[2] = tested on: gp120 binding to brain tissue; settings: in vitro; cited from earlier work
HIV = settings: in vitro; cited from earlier work
[3] = tested on: neurotoxic effects of gp120; settings: on cells and in animals; cited from earlier work
rats = assay: Intrathecal VIP in rats; assay type: in vivo, rat
Experimental: Each animal was treated with VIP or Ringer's solution in a counterbalanced fashion. […] At a dose of 25 ug VIP/5 ul (5 ug/ul), there were 4 of 6 documented deaths. At 60 ug VIP/5 ul (12 ug/ul), there were 3 of 5 documented deaths.

| Compound | Effect on gp 120-CD4 induced increase of intracellular free calcium [1] | Effect on binding of gp120 [2] | Effect on HIV replication in cell culture (HIV) | Effect on the neurotoxic effects of gp120 [3] | Documented deaths (rats; 25 ug VIP/5 ul (5 ug/ul) IT) | Documented deaths (rats; 60 ug VIP/5 ul (12 ug/ul) IT) | Morbidity (rats; IT VIP) | Symptoms shown by all VIP-treated animals (rats; IT VIP, all doses) | Concentration shown to be effective to induce the desired symptoms (rats; IT, rats) [µg/µL] | AIDS-like symptoms in addition to neurological deficit (rats; VIP 25 ug/5 ul (5 ug/ul) IT) |
| --- | --- | --- | --- | --- | --- | --- | --- | --- | --- | --- |
| COCCOC(=O)C1=C(C)NC(C)=C(C(=O)OC(C)C)C1c1cccc([N+](=O)[O-])c1 (stereo not shown) [nimodipine] | antagonize this effect | – | – | – | – | – | – | – | – | – |
| Vasoactive Intestinal Peptide [VIP] | – | inhibit | inhibit | potently inhibit | 4 of 6 | 3 of 5 | morbidity was observed | diarrhea, weight loss, monoparesis, lower limb deficits and mucous secretions | 2.55 to 12 | diarrhea, hind limb rigidity and damage to spinal tissue |
